Data from patent publication US6706663B2, “Herbicidal 3-heterocyclic substituted benzisothiazole and benzisoxazole compounds” (Wyeth, priority 2000, dated 2004).

What was measured:
[1] = system: SAGPY (Sagittaria pygmaea); assay: Flooded paddy, preemergence weed control; type: in vivo, L.; conditions: rated 3-4 weeks after treatment, 0-9 rating scale
In short: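 Silt loam, sowing depth ≤0.5 cm; permanent flood 1.5–3 cm above soil; greenhouse culture after treatment. Readout: 0-9 visual scale (stand, vigor, malformation, size, chlorosis, appearance) vs control.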

[2] = system: ORYSAT (Rice, Tebonnet); assay: Preemergence herbicidal evaluation; type: in vivo, Oryza sativa, (L.) Tebonnet; conditions: rated 4-5 weeks after treatment
[3] = system: ABUTH (Abutilon theophrasti); assay: Postemergence herbicidal evaluation; type: in vivo, Medic.; conditions: for ABUTH herbicidal rating: postemergence
In short: (§1)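 Visual 0–9 injury scores versus control plants, covering stand, vigour, malformation, size, chlorosis and general appearance, taken four to five weeks post-spray and averaged over replicate tests. Plants were sprayed at roughly two weeks old and held on greenhouse benches.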

[4] = system: AMBEL (Ambrosia artemisifolia); assay: Preemergence herbicidal evaluation; type: in vivo, L.; conditions: rated 4-5 weeks after treatment
In short: (§2)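 Rating 0–9, visual, vs control; 4–5 wk after spraying seeded cups with compound in aq. acetone; conventional greenhouse care.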

[5] = system: CHEAL (Chenopodium album); assay: Preemergence herbicidal evaluation; type: in vivo, L.; conditions: rated 4-5 weeks after treatment
In short: as §2

[6] = system: CASOB (Cassia obtusifolia); assay: Preemergence herbicidal evaluation; type: in vivo, L.; conditions: rated 4-5 weeks after treatment
In short: as §2

[7] = system: ZEAMX (Corn, Field); assay: Postemergence herbicidal evaluation; type: in vivo, Zea mays, L.; conditions: for ZEAMX herbicidal rating: postemergence
In short: as §1

[8] = system: CYPSE (Cyperus serotinus); assay: Flooded paddy, preemergence weed control; type: in vivo, Rottb.; conditions: rated 3-4 weeks after treatment, 0-9 rating scale
In short: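 Seeds or propagules were planted 0.5 cm deep in silt loam and flooded to 1.5–3 cm. Compounds in 50/50 v/v aqueous/acetone were pipetted into the flood water at about 0.0080 to 0.1250 kg/ha. After 3–4 weeks in the greenhouse, effect was rated visually on a 0–9 scale versus untreated control.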

[9] = system: GLXMAW (Soybean, Williams); assay: Postemergence herbicidal evaluation; type: in vivo, Glycine max, (L.) Merr. cv Williams; conditions: for GLXMAW herbicidal rating: postemergence
In short: as §1

[10] = system: IPOHE (Ipomoea hederacea); assay: Preemergence herbicidal evaluation; type: in vivo, (L.) Jacq.; conditions: rated 4-5 weeks after treatment
[11] = system: AMBEL (Ambrosia artemisifolia); assay: Postemergence herbicidal evaluation; type: in vivo, L.; conditions: for AMBEL herbicidal rating: postemergence
In short: as §1

[12] = system: CHEAL (Chenopodium album); assay: Postemergence herbicidal evaluation; type: in vivo, L.; conditions: for CHEAL herbicidal rating: postemergence
In short: as §1

[13] = system: CASOB (Cassia obtusifolia); assay: Postemergence herbicidal evaluation; type: in vivo, L.; conditions: for CASOB herbicidal rating: postemergence
In short: as §1

[14] = system: ABUTH (Abutilon theophrasti); assay: Preemergence herbicidal evaluation; type: in vivo, Medic.; conditions: rated 4-5 weeks after treatment
[15] = system: TRZAWR (Wheat, Winter, cv Riband); assay: Preemergence herbicidal evaluation; type: in vivo, Triticum aestivum; conditions: rated 4-5 weeks after treatment
In short: as §2

[16] = system: GALAP (Galium aparine); assay: Postemergence herbicidal evaluation; type: in vivo; conditions: for GALAP herbicidal rating: postemergence
In short: as §1

[17] = system: ORYSAT (Rice, Tebonnet); assay: Flooded paddy, post-transplant rice tolerance; type: in vivo, Oryza sativa, (L.) Tebonnet; conditions: flooded paddy, post-transplant rice, rated 3-4 weeks after treatment, 0-9 rating scale
In short: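 Scores (0-9) reflect visual injury relative to untreated plants in flooded silt loam. Each pot held two transplanted ten-day-old seedlings under 1.5 to 3 cm standing water in the greenhouse.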

[18] = system: ORYSAT (Rice, Tebonnet); assay: Postemergence herbicidal evaluation; type: in vivo, Oryza sativa, (L.) Tebonnet; conditions: for ORYSAT herbicidal rating: postemergence
In short: as §1

[19] = system: ECHCG (Echinochloa crus-galli); assay: Postemergence herbicidal evaluation; type: in vivo, (L.) Beau; conditions: for ECHCG herbicidal rating: postemergence
In short: as §1

[20] = system: GALAP (Galium aparine); assay: Preemergence herbicidal evaluation; type: in vivo; conditions: preemergence, rated 4-5 weeks after treatment
In short: as §2

[21] = preemergence, rate 0.0620 kg/ha
[22] = preemergence, rate 0.1250 kg/ha
[23] = preemergence, rate 0.2500 kg/ha

C[C@@H]1OC(c2nsc3ccc(-n4c(=O)cc(C(F)(F)F)n(C)c4=O)cc23)O[C@@H]1C (stereo partly drawn) [Compound 47, 3-[3-[(4R,5S)-4,5-dimethyl-1,3-dioxolan-2-yl]-1,2-benzisothiazol-5-yl]-1-methyl-6-(trifluoromethyl)uracil]
herbicidal rating, SAGPY ([1]; rate 0.0080 kg/ha): 0.0 | herbicidal rating, SAGPY ([1]; rate 0.0320 kg/ha): 7.5 | herbicidal rating, SAGPY ([1]; rate 0.1250 kg/ha): 9.0 | Preemergence herbicidal rating ORYSAT ([2]; Rate 0.0620 kg/ha): 7.5 | Preemergence herbicidal rating ORYSAT ([2]; Rate 0.1250 kg/ha): 7.5 | Preemergence herbicidal rating ORYSAT ([2]; Rate 0.2500 kg/ha): 9.0 | Postemergence herbicidal rating, ABUTH ([3]; rate 0.0320 kg/ha): 9.0 | Postemergence herbicidal rating, ABUTH ([3]; rate 0.0620 kg/ha): 9.0 | Preemergence herbicidal rating AMBEL ([4]; Rate 0.0620 kg/ha): 9.0 | Preemergence herbicidal rating AMBEL ([4]; Rate 0.1250 kg/ha): 9.0 | Preemergence herbicidal rating AMBEL ([4]; Rate 0.2500 kg/ha): 9.0 | Preemergence herbicidal rating CHEAL ([5]; Rate 0.0620 kg/ha): 9.0 | Preemergence herbicidal rating CHEAL ([5]; Rate 0.1250 kg/ha): 9.0 | Preemergence herbicidal rating CHEAL ([5]; Rate 0.2500 kg/ha): 9.0 | Preemergence herbicidal rating CASOB ([6]; Rate 0.0620 kg/ha): 4.5 | Preemergence herbicidal rating CASOB ([6]; Rate 0.1250 kg/ha): 7.5 | Preemergence herbicidal rating CASOB ([6]; Rate 0.2500 kg/ha): 9.0 | Postemergence herbicidal rating, ZEAMX ([7]; rate 0.0320 kg/ha): 3.5 | Postemergence herbicidal rating, ZEAMX ([7]; rate 0.0620 kg/ha): 4.0 | herbicidal rating, CYPSE ([8]; rate 0.0320 kg/ha): 9.0 | herbicidal rating, CYPSE ([8]; rate 0.1250 kg/ha): 9.0 | Postemergence herbicidal rating, GLXMAW ([9]; rate 0.0320 kg/ha): 7.5 | Postemergence herbicidal rating, GLXMAW ([9]; rate 0.0620 kg/ha): 8.5 | Preemergence herbicidal rating IPOHE ([10]; Rate 0.0620 kg/ha): 7.5 | Preemergence herbicidal rating IPOHE ([10]; Rate 0.1250 kg/ha): 8.0 | Preemergence herbicidal rating IPOHE ([10]; Rate 0.2500 kg/ha): 9.0 | Postemergence herbicidal rating, AMBEL ([11]; rate 0.0320 kg/ha): 9.0 | Postemergence herbicidal rating, AMBEL ([11]; rate 0.0620 kg/ha): 9.0 | Postemergence herbicidal rating, CHEAL ([12]; rate 0.0320 kg/ha): 9.0 | Postemergence herbicidal rating, CHEAL ([12]; rate 0.0620 kg/ha): 9.0 | Postemergence herbicidal rating, CASOB ([13]; rate 0.0320 kg/ha): 6.0 | Postemergence herbicidal rating, CASOB ([13]; rate 0.0620 kg/ha): 9.0 | Preemergence herbicidal rating ABUTH ([14]; Rate 0.0620 kg/ha): 9.0 | Preemergence herbicidal rating ABUTH ([14]; Rate 0.1250 kg/ha): 9.0 | Preemergence herbicidal rating ABUTH ([14]; Rate 0.2500 kg/ha): 9.0 | Preemergence herbicidal rating TRZAWR ([15]; Rate 0.0620 kg/ha): 6.0 | Preemergence herbicidal rating TRZAWR ([15]; Rate 0.1250 kg/ha): 8.0 | Preemergence herbicidal rating TRZAWR ([15]; Rate 0.2500 kg/ha): 8.0 | Postemergence herbicidal rating, GALAP ([16]; rate 0.0320 kg/ha): 9.0 | Postemergence herbicidal rating, GALAP ([16]; rate 0.0620 kg/ha): 9.0 | herbicidal rating, ORYSAT (rice tolerance) ([17]; rate 0.0080 kg/ha): 3.0 | herbicidal rating, ORYSAT (rice tolerance) ([17]; rate 0.0320 kg/ha): 7.5 | herbicidal rating, ORYSAT (rice tolerance) ([17]; rate 0.1250 kg/ha): 9.0 | Postemergence herbicidal rating, ORYSAT ([18]; rate 0.0320 kg/ha): 4.0 | Postemergence herbicidal rating, ORYSAT ([18]; rate 0.0620 kg/ha): 6.5 | Postemergence herbicidal rating, ECHCG ([19]; rate 0.0320 kg/ha): 0.0 | Postemergence herbicidal rating, ECHCG ([19]; rate 0.0620 kg/ha): 3.0

Cn1c(C(F)(F)F)cc(=O)n(-c2ccc3snc(-c4sccc4CO)c3c2)c1=O [Compound 85, 3-[3-[3-(hydroxymethyl)-2-thienyl]-1,2-benzisothiazol-5-yl]-1-methyl-6-(trifluoromethyl)uracil]
SAGPY herbicidal rating ([1]; rate 0.0080 kg/ha): 0.0 | SAGPY herbicidal rating ([1]; rate 0.0320 kg/ha): 1.5 | herbicidal rating, SAGPY ([1]; rate 0.1250 kg/ha): 7.0 | Preemergence herbicidal rating ORYSAT [2, 21]: 2.0 | Preemergence herbicidal rating ORYSAT [2, 22]: 6.0 | Preemergence herbicidal rating ORYSAT [2, 23]: 7.0 | ABUTH herbicidal rating ([3]; rate 0.0320 kg/ha): 9.0 | ABUTH herbicidal rating ([3]; rate 0.0620 kg/ha): 9.0 | Preemergence herbicidal rating AMBEL [4, 21]: 8.0 | Preemergence herbicidal rating AMBEL [4, 22]: 9.0 | Preemergence herbicidal rating AMBEL [4, 23]: 9.0 | Preemergence herbicidal rating CHEAL [5, 21]: 9.0 | Preemergence herbicidal rating CHEAL [5, 22]: 9.0 | Preemergence herbicidal rating CHEAL [5, 23]: 9.0 | Preemergence herbicidal rating CASOB [6, 21]: 0.0 | Preemergence herbicidal rating CASOB [6, 22]: 3.0 | Preemergence herbicidal rating CASOB [6, 23]: 5.0 | ZEAMX herbicidal rating ([7]; rate 0.0320 kg/ha): 4.5 | ZEAMX herbicidal rating ([7]; rate 0.0620 kg/ha): 5.0 | GLXMAW herbicidal rating ([9]; rate 0.0320 kg/ha): 3.5 | GLXMAW herbicidal rating ([9]; rate 0.0620 kg/ha): 4.0 | Preemergence herbicidal rating IPOHE [10, 21]: 0.0 | Preemergence herbicidal rating IPOHE [10, 22]: 4.0 | Preemergence herbicidal rating IPOHE [10, 23]: 7.0 | AMBEL herbicidal rating ([11]; rate 0.0320 kg/ha): 5.0 | AMBEL herbicidal rating ([11]; rate 0.0620 kg/ha): 9.0 | CHEAL herbicidal rating ([12]; rate 0.0320 kg/ha): 9.0 | CHEAL herbicidal rating ([12]; rate 0.0620 kg/ha): 9.0 | CASOB herbicidal rating ([13]; rate 0.0320 kg/ha): 4.0 | CASOB herbicidal rating ([13]; rate 0.0620 kg/ha): 4.0 | Preemergence herbicidal rating ABUTH [14, 21]: 9.0 | Preemergence herbicidal rating ABUTH [14, 22]: 9.0 | Preemergence herbicidal rating ABUTH [14, 23]: 9.0 | Preemergence herbicidal rating GALAP ([20]; rate 0.0620 kg/ha): 4.0 | Preemergence herbicidal rating GALAP ([20]; rate 0.1250 kg/ha): 6.0 | Preemergence herbicidal rating GALAP ([20]; rate 0.2500 kg/ha): 9.0 | Preemergence herbicidal rating TRZAWR [15, 21]: 0.0 | Preemergence herbicidal rating TRZAWR [15, 22]: 0.0 | Preemergence herbicidal rating TRZAWR [15, 23]: 3.0 | GALAP herbicidal rating ([16]; rate 0.0320 kg/ha): 4.0 | GALAP herbicidal rating ([16]; rate 0.0620 kg/ha): 6.0 | ORYSAT herbicidal rating (transplanted rice tolerance) ([17]; rate 0.0080 kg/ha): 0.0 | ORYSAT herbicidal rating (transplanted rice tolerance) ([17]; rate 0.0320 kg/ha): 1.5 | herbicidal rating, ORYSAT (rice tolerance) ([17]; rate 0.1250 kg/ha): 5.5 | ORYSAT herbicidal rating ([18]; rate 0.0320 kg/ha): 3.5 | ORYSAT herbicidal rating ([18]; rate 0.0620 kg/ha): 4.5 | ECHCG herbicidal rating ([19]; rate 0.0320 kg/ha): 0.0 | ECHCG herbicidal rating ([19]; rate 0.0620 kg/ha): 2.0
